We go through 4 compounds from patent publication US9458173B2, “Amides of 2-amino-4-arylthiazole compounds and their salts” (GLENMARK PHARMACEUTICALS S.A., priority 2012, dated 2016).

Common to all, as to assay type: physicochemical
A short description of data set [1]: Dissolution studies in suspension form. To be noted: suspension: 10 mg active, Kollidon VA 64 40 mg, SLS 20 mg, purified water; batches 1A, 2A, 3A. The protocol:
Suspension of compound of formula (II) and its salts with same composition was prepared using conventional homogenization technique. The % drug release was determined by comparing with 10 mg equivalent suspension (after sonication).

The nature of data set [2]: Solubility studies, shake flask method with HPLC quantification. As to conditions: 37° C., 200 rpm, about 15 minutes; for solubility: thermodynamic from solid, read-out: Solubility (Conc.). The protocol: • Shake flask method was used to determine the solubility of compound in various bio-relevant media of different pH and quantification is done using HPLC method. II. Experimental:
Following bio-relevant media and water were selected to study the solubility behaviour. • i. FaSSIF (Fasted state simulated intestinal fluid) of pH 6.5 • ii. FeSSIF (Fed state simulated intestinal fluid) of pH 5.0 • iii. Water.
Procedure: Test substance (1 mg) was taken in a test tube and medium [FaSSIF (pH 6.5) or FeSSIF (pH 5.0) or water] was added in the increment of 1 ml with shaking. After completion of addition of 10 ml of media, test tubes containing sample solution were put on a mechanical shaker set at 37° C. and 200 rpm for shaking up to about 15 minutes. After shaking, the content of each flask, it was filtered through […] filter. The filtered solution was analysed using HPLC for quantification. A sample solution of 1 mg in 10 ml of DMSO was used as reference standard for quantifying dissolved test substance in each media. The solubility in each media is expressed as μg/ml (Table-10).

The nature of data set [3]: Stability studies of salts under storage, degradation products by HPLC. From the text: The salts of compound of formula II were stored under conditions as shown in Table 11 and a total amount of degradation products (related substances) and single maximum impurity formed during storage was estimated according to following protocol:
Apparatus: A High Performance Liquid Chromatograph equipped with quaternary gradient pumps, variable wavelength UV detector attached with data recorder and Integrator software or equivalent.
Column: Phenomenex Prodigy, 250 mm×4.6 mm, 5.0 or equivalent
Mobile phase: A: Buffer B: Acetonitrile (for sodium salt), acetonitrile:methanol (6:4) for potassium salt
Buffer: 0.1% Formic acid in water
Detection wavelength: UV 265 nm
Column temperature: 40° C.
10 mg of compound was weighed and transferred it into a 20 mL volumetric flask. Dimethylsulfoxide was added and it was sonicated to dissolve. The diluent was added to make up the solution to the mark of the flask.
The equal volumes of blank (diluent) and test solution were separately injected into the liquid chromatograph. The responses were recorded eliminating the peaks due to blank and the chromatographic purity by area was calculated by normalization method.
The salts of the compound of formula II were stored under conditions as shown in below table and a total amount of degradation products (related substances) as well as single maximum impurity formed during storage was estimated by HPLC. The material was packed in inner clear polythene bag under nitrogen lined with black polythene bag, covered with triple laminated aluminium bag placed in HDPE drum and subjected to the conditions mentioned in the table 11.

Data set [4] is described as follows: Hygroscopicity study, moisture content by Karl Fischer method. To be noted: for moisture content, initial value: before exposure to humidity; for moisture content increase: 25° C., 48 hrs. As for the experimental part:
Hygroscopicity study was performed under the following conditions: The material was exposed to relative humidity (for example 60%, 80%, 90%) at 25° C. condition. The material was thinly spread in dried and pre-weighed Petri plate. The plate was exposed to the relative humidity conditions at 25° C. The Petri plate was withdrawn at regular intervals and weighed. Withdrawn samples were tested for description and moisture content by Karl Fischer method.

[5] abbreviates: storage condition 1: 25 ± 2° C., 60 ± 5% RH, 0 months.
The mark [6] stands for this setting: storage condition 1: 25 ± 2° C., 60 ± 5% RH, 1 month.
[7] abbreviates: storage condition 1: 25 ± 2° C., 60 ± 5% RH, 2 months.
Setting [8] is: storage condition 1: 25 ± 2° C., 60 ± 5% RH, 3 months.
The mark [9] stands for this setting: storage condition 1: 25 ± 2° C., 60 ± 5% RH, 6 months.
Where [10] appears, read: storage condition 1: 25 ± 2° C., 60 ± 5% RH, 9 months.
The mark [11] stands for this setting: storage condition 2: 30 ± 2° C., 65 ± 5% RH, 0 months.
Where [12] appears, read: storage condition 2: 30 ± 2° C., 65 ± 5% RH, 6 months.
Setting [13] is: storage condition 3: 40 ± 2° C., 75 ± 5% RH, 0 months.
The mark [14] stands for this setting: storage condition 3: 40 ± 2° C., 75 ± 5% RH, 1 month.
Where [15] appears, read: storage condition 3: 40 ± 2° C., 75 ± 5% RH, 2 months.
Setting [16] is: storage condition 3: 40 ± 2° C., 75 ± 5% RH, 3 months.
[17] abbreviates: storage condition 3: 40 ± 2° C., 75 ± 5% RH, 6 months.
Setting [18] is: storage condition 2: 30 ± 2° C., 65 ± 5% RH, 1 month.
[19] abbreviates: storage condition 2: 30 ± 2° C., 65 ± 5% RH, 2 months.
Where [20] appears, read: storage condition 2: 30 ± 2° C., 65 ± 5% RH, 3 months.

≈ marks a conversion by molar mass, not a printed value. Read-outs that look alike come from different tables or passages of the source.

Usually solubility stands for the dissolved amount per volume that the medium holds. As to `Cn1c(=O)c2c(CC(=O)Nc3nc(-c4ccc(F)c(C(F)(F)F)c4F)cs3)csc2n(C)c1=O` [Compound (II), N-{4-[2,4-difluoro-3-(trifluoromethyl)phenyl]-1,3-thiazol-2-yl}-2-(1,3-dimethyl-2,4-dioxo-1,2,3,4-tetrahydrothieno[2,3-d]pyrimidin-5-yl)acetamide], in data set [1], the “% drug release after 15 minutes” value is on record as 0.40%. Moreover, the solubility in data set [2] (FaSSIF (fasted state simulated intestinal fluid), FaSSIF (pH 6.5)) is 0.16 µg/mL (≈ 0.31 µM); in data set [2] (FeSSIF (fed state simulated intestinal fluid), FeSSIF (pH 5.0)) it was 0.06 µg/mL (≈ 0.116 µM); in data set [2] (Water) it was 0.1 µg/mL (≈ 0.194 µM).
Turning to `Cn1c(=O)c2c(CC(=O)Nc3nc(-c4ccc(F)c(C(F)(F)F)c4F)cs3)csc2n(C)c1=O.[K]` [Potassium salt of compound (II), potassium salt of N-{4-[2,4-difluoro-3-(trifluoromethyl)phenyl]-1,3-thiazol-2-yl}-2-(1,3-dimethyl-2,4-dioxo-1,2,3,4-tetrahydrothieno[2,3-d]pyrimidin-5-yl)acetamide], the “% drug release after 15 minutes” value in data set [1] was 6.3%. Further, the Related substances in data set [3] (setting [5]) is on record as 0.44%; in data set [3] (setting [6]), 0.45%; in data set [3] (setting [7]), 0.31%; in data set [3] (setting [8]), 0.43%; in data set [3] (setting [9]), 0.35%; in data set [3] (setting [10]), 0.35%. Also, the Related substances is 0.44% in data set [3] (setting [11]); 0.51% in data set [3] (setting [12]); 0.44% in data set [3] (setting [13]); 0.44% in data set [3] (setting [14]); 0.32% in data set [3] (setting [15]); 0.46% in data set [3] (setting [16]). The Related substances in data set [3] (setting [17]) amounted to 0.52%. Further, the single max. impurity in data set [3] (setting [5]) is reported as 0.26%; in data set [3] (setting [6]), 0.27%; in data set [3] (setting [7]) it was 0.19%; in data set [3] (setting [8]), 0.26%; in data set [3] (setting [9]), 0.21%; in data set [3] (setting [10]) it was 0.21%. Also, the single max. impurity in data set [3] (setting [11]) stood at 0.26%; in data set [3] (setting [12]), 0.31%; in data set [3] (setting [13]) it was 0.26%; in data set [3] (setting [14]), 0.27%; in data set [3] (setting [15]) it was 0.20%; in data set [3] (setting [16]), 0.28%. Further, the single max. impurity in data set [3] (setting [17]) was determined as 0.32%. Also, the “moisture content after gradual increase” value in data set [4] (48 hrs at 25° C./60% RH, listed as potassium salt of compound of formula (II)) came out at 3.5%; in data set [4] (48 hrs at 25° C./80% RH, listed as potassium salt of compound of formula (II)) it was 6.6%; in data set [4] (48 hrs at 25° C./90% RH, listed as potassium salt of compound of formula (II)), 16.0%. Further, the “moisture content, initial value” in data set [4] (listed as potassium salt of compound of formula (II)) is reported as 0.80%. The moisture content increase in data set [4] (relative humidity of 60%) is listed as ≤ 2.7%; in data set [4] (relative humidity of 80%), ≤ 5.8%; in data set [4] (relative humidity of 90%), ≤ 15.2%. Also, the results for the “Solubility (Conc.)” value in data set [2] (FaSSIF (pH 6.5)), in data set [2] (FeSSIF (pH 5.0)) and in data set [2] (Water) were 5.91 µg/mL, 5.53 µg/mL and 0.49 µg/mL, respectively.
As for `Cn1c(=O)c2c(CC(=O)[N-]c3nc(-c4ccc(F)c(C(F)(F)F)c4F)cs3)csc2n(C)c1=O.[Na+]` [Sodium salt of compound (II)], the “% drug release after 15 minutes” value in data set [1] is reported as 1.2%. The Related substances came to 0.22% in data set [3] (setting [5]); 0.28% in data set [3] (setting [6]); 0.36% in data set [3] (setting [7]); 0.38% in data set [3] (setting [8]); 0.51% in data set [3] (setting [9]); 0.75% in data set [3] (setting [10]). Also, the Related substances is 0.22% in data set [3] (setting [11]); 0.30% in data set [3] (setting [18]); 0.40% in data set [3] (setting [19]); 0.47% in data set [3] (setting [20]); 0.71% in data set [3] (setting [12]); 0.22% in data set [3] (setting [13]). Also, the Related substances in data set [3] (setting [14]) turned out to be 0.54%; in data set [3] (setting [15]), 0.70%; in data set [3] (setting [16]), 0.77%; in data set [3] (setting [17]), 1.0%. Further, the single max. impurity in data set [3] (setting [5]) is 0.05%; in data set [3] (setting [6]), 0.06%; in data set [3] (setting [7]), 0.10%; in data set [3] (setting [8]), 0.11%; in data set [3] (setting [9]), 0.23%; in data set [3] (setting [10]) it was 0.39%. The single max. impurity in data set [3] (setting [11]) was found to be 0.05%; in data set [3] (setting [18]) it was 0.05%; in data set [3] (setting [19]), 0.14%; in data set [3] (setting [20]), 0.18%; in data set [3] (setting [12]) it was 0.35%; in data set [3] (setting [13]), 0.05%. The single max. impurity was 0.22% in data set [3] (setting [14]), 0.36% in data set [3] (setting [15]), 0.39% in data set [3] (setting [16]) and 0.58% in data set [3] (setting [17]). Further, the “Solubility (Conc.)” value came to 1.07 µg/mL in data set [2] (FaSSIF (pH 6.5)), 0.24 µg/mL in data set [2] (FeSSIF (pH 5.0)) and 0.13 µg/mL in data set [2] (Water).
`Cn1c(=O)c2c(CC(=O)Nc3nc(-c4ccc(F)c(C(F)(F)F)c4F)cs3)csc2n(C)c1=O.[K]` [Potassium salt of N-{4-[2,4-difluoro-3-(trifluoromethyl)phenyl]-1,3-thiazol-2-yl}-2-(1,3-dimethyl-2,4-dioxo-1,2,3,4-tetrahydrothieno[2,3-d]pyrimidin-5-yl)acetamide in crystalline form]: the “moisture content after gradual increase” value in data set [4] (48 hrs at 25° C./60% RH) is reported as “about 3.5%”; in data set [4] (48 hrs at 25° C./80% RH), “about 6.6%”; in data set [4] (48 hrs at 25° C./90% RH) it was “about 16.0%”. For the same compound, in data set [4], the “moisture content, initial value” is “about 0.80%”.
